In the SangsterLogP compilation one finds logD and logP data, which are given here for 58 compounds.

A short description of series [1]: method code SF, from DOI: 10.1016/s0021-9673(03)00534-x, PMID: 12800922. As to conditions: pH 11.0.
Series [2] in a line: method code SF-AS, from Kourounakis, P.; Chilliard, N. (1983). Ionization constants and partition coefficients of some 1,1-diphenyl-1-alkoxy-3-dialkylamino-2-propanones with analgesic activity. Pharmazie, 38(6)388-389. As to conditions: pH 7.4.
Series [3] in a line: method code SF-AS, from DOI: 10.1006/pest.1994.1014.
Assay in series [4]: not given
The source holds these as a separate data set.

Assay in series [5]: not given
The source holds these as a separate data set.

Assay in series [6]: not given
This is another data set of the same source.

Series [7] is described as follows: method code SF-AS, from DOI: 10.3390/molecules16097565, PMID: 21894089.
Series [8] can be described thus: method code SF-AS, from DOI: 10.1016/0223-5234(94)90120-1. The conditions noted are these: pH 7.4.
Series [9] is described as follows: method code SF-AS, from DOI: 10.1002/chin.199708138, PMID: 8917646. As to conditions: pH 7.4.
Series [10] in a line: method code SF-AS, from M. Kuchar, J. Tomkova, V. Rejholec, & O. Roubinek. (1992). Some problems of the chromatographic evaluation of lipophicity. In Kuchar, M. (Ed.) QSAR in Design of Bioactive Compounds (pp. 65-81). Prous …. The conditions noted are these: pH 3.4.
Series [11] can be described thus: method code SF-HPLC, from DOI: 10.1039/p29890001935.
A short description of series [12]: method code SF-AS, from DOI: 10.1248/cpb.42.1084, PMID: 8069960.
Series [13] can be described thus: method code …, from Wiggins, H.; Karcher, A.; Michael Wilson, J.; Robb, I. (2008). Determining Octanol/Water Partitioning Coefficients for Industrial Surfactants. Proc. 15th Annual International Petroleum & Biofuels ….
The nature of series [14]: method code SF-AS, from DOI: 10.1016/s0026-895x(25)13808-x, PMID: 93689.
A short description of series [15]: method code SF-HPLC, from PMID: 2780588.
Series [16] can be described thus: method code SF-HPLC, from DOI: 10.1016/j.apradiso.2007.04.014, PMID: 17574425. The conditions noted are these: pH 7.4.
Series [17] in a line: method code SF-RC, from DOI: 10.1016/j.bmc.2013.10.046, PMID: 24262882. As to conditions: pH 7.4.
Assay in series [18]: not given
This is another data set of the same source.

Series [19] is described as follows: method code SF-HPLC, from DOI: 10.1002/ps.2780440103. As to conditions: pH 2.0.
Series [20] can be described thus: method code SF-AS, from DOI: 10.1021/jm9800301, PMID: 9748357. The conditions noted are these: pH 7.4.
Series [21] can be described thus: method code SF, from PMID: 8999431. The conditions noted are these: pH 7.4.
A short description of series [22]: method code SF-HPLC, from DOI: 10.1023/a:1015828802490, PMID: 2308896.
The nature of series [23]: method code SF-AS, from DOI: 10.1002/chin.199416148, PMID: 8117185.
Assay in series [24]: not given
This is another data set of the same source.

Series [25] in a line: method code SF-RC, from DOI: 10.1021/jm701375u, PMID: 18307287. As to conditions: pH 7.4.
Assay in series [26]: not given
This is another data set of the same source.

Series [27] in a line: method code SF, from DOI: 10.1016/s0960-894x(04)00268-9, PMID: 15109667. The conditions noted are these: pH 7.4.
Series [28] in a line: method code SF, from DOI: 10.1002/jps.2600830715, PMID: 7965680.

Consider `CC(C)(C)NCC(O)COc1cccc2c1CCC(=O)N2` (stereo not drawn), for which the logD (as a rule, lipophilicity at a set pH, counting ionised and neutral species) in series [1] was found to be 1.49. The compound `CN(C)CC(=O)C(Oc1ccccc1)(c1ccccc1)c1ccccc1` displayed a logD in series [2] of 1.57. In the case of `Cc1ccccc1C(=O)NN(C(=O)c1ccccc1Cl)C(C)(C)C`, the logP (as a rule, the decadic logarithm of the partition coefficient of the neutral form, usually between octanol and water) in series [3] amounted to 2.91. `NS(=O)(=O)c1cc(Cl)c(Nc2nc3ccncc3c3c(=O)[nH]ccc23)c(Cl)c1` yielded a logP of 1.17. In the case of `C[C@]12CC[C@@H]3c4ccc(O)cc4CC[C@H]3[C@@H]1C[C@@H](O)[C@@H]2O`, in series [4], the logP stood at 2.45. `CNC12CC(CN)CCC1CCc1ccccc12` (stereo not drawn) came in with a logP in series [5] of 2. In series [6], `Fc1ccccc1C1=NCC(=S)N(CC(F)(F)F)c2ccc(Cl)cc21` registered a logP of 4.03. `CC(C)c1ccc(N2C(=O)C(=O)N([C@H](C)c3nc4ccc(F)cc4s3)C2=O)cc1`: in [7], the log partition coefficient (logP) was found to be 1.64.

Consider `S=C1SCN(Cc2ccccc2)CN1CCc1ccccc1`, for which the logD in series [8] was found to be 5. For the compound `COC(=O)C1=C(C)NC(C)=C(C(=O)OCCOC(=O)C2=CN(C)C=CC2)C1c1cccc(Cl)c1Cl` (stereo not drawn), the logD in series [9] was found to be 2.56.

In series [10], `O=C(O)CCc1ccc(OCc2ccccc2)cc1` showed a logD of 3.31. In [4], `CC(=O)[C@H]1CC[C@H]2[C@@H]3CC=C4C[C@@H](O)CC[C@]4(C)[C@H]3CC[C@]12C` gave a logP of 4.22. `COC(=O)C1=C(C)NC(C)=C(C(=O)OCCO)C1c1cccc(Cl)c1Cl` (stereo not drawn) showed a logD in [9] of 2.37.

For `C[C@H](c1nc2ccc(F)cc2s1)N1C(=O)C(=O)N(c2ccc(Cl)cc2)C1=O`, in series [7], the logP worked out at 0.41.

As for `Clc1ccccc1C1OCC2ON=C(c3ccccc3)C2CO1` (stereo not drawn), in [11], the logP worked out at 2.92. `Fc1ccccc1C1OCC2ON=C(c3ccccc3)C2CO1` (stereo not drawn) returned a logP in [11] of 2.35. In the case of `COc1ccc2[nH]c3c4ccc(Cl)cc4ncc3c2c1`, in [12], the logP amounted to 4.49. In [1], `CC(C)(C)NC[C@H](O)COc1ccccc1C1CCCC1` displayed a logD of 3.61. The compound `CCCCCCCCOCCOCCOCCOCCO` registered a logP in [13] of 2.68. In series [14], `CN1CCN(C2=Nc3cc(Cl)ccc3Nc3ccccc32)CC1` yielded a logP of 3.32. `CCCCCCCCCCCCOCCOCCOCCOCCOCCOCCO` showed a logP in [13] of 4.81.

As to `CCCCCCCCNC(=O)Cc1ccc(O)c(OC)c1`, in series [15], the logP is 2.94.

As to `O=C(CCl)Nc1ccc2ncnc(Nc3cc(Cl)c(Cl)cc3F)c2c1`, in series [16], the logD came out at 4.12.

In series [17], `COC(=O)C1C(c2ccc(I)cc2)C2CCC1N2CC=CI` (stereo not drawn) had a logD of 5.29.

For `CC(C)(C)[C@]1(O)CCN2CC3c4ccccc4CCc4cccc(c43)C2C1` (stereo partly drawn), in [14], the logP came to 4.35. In series [18], `CCO[C@@H](Cc1ccc(OC/C=C/C#Cc2ccccc2)cc1)C(=O)O` yielded a logP of 3.87. `CSC(=NOC(=O)N(C)COC1OC(C(=O)O)C(O)C(O)C1O)C(=O)N(C)C` (stereo not drawn) registered a logD in series [19] of -1.98. Take `O=C(NCc1ccc(F)cc1)C(=O)c1c[nH]c2ccccc12`: the logD in series [20] is 2.88. The compound `CC(C)(O)c1cc(Cl)c(Nc2nc3ccncc3c3c(=O)[nH]ccc23)c(Cl)c1` gave a logP of 1.34. On to `CCC(C)C(NC(=O)c1cn(CC)c2nc(C)ccc2c1=O)C(=O)OC` (stereo not drawn), for which the logD in series [21] amounted to 2.64. Compound `O=C(OCCF)C1C(c2ccc(I)cc2)C2CCC1N2CC=CI` (stereo not drawn) gave a logD in [17] of 5.39. In series [19], `COC(=O)[C@H]1O[C@@H](Oc2ccc3ccc(=O)oc3c2)[C@H](O)[C@@H](O)[C@@H]1O` gave a logD of -1.08.

In turn, `S=C1SCN(Cc2ccccc2)CN1Cc1ccccc1` displayed a logD in series [8] of 4.9. In series [22] (pH 7.4), `COc1c(C)c2c(c(OC(C)=O)c1C/C=C(\C)CCC(=O)OCC1COC(C)(C)O1)C(=O)OC2` (stereo not drawn) showed a logD of 2.87. Turning to `O=C(CCN1CCOCC1)CN1C(=O)C2CC=CCC2C1=O` (stereo not drawn), the logP in series [23] was 0.56. In series [16], `O=C(CCl)Nc1cc2c(Nc3cc(Cl)c(Cl)cc3F)ncnc2cc1OCCOCCOCCOCCOCCOCCF` gave a logD of 4.75. Regarding `CSc1cccc(N(C)C(=N)Nc2cc(SC)ccc2Cl)c1`, the logP in series [24] came to 2.68.

Take `CC(C)(C)N(NC(=O)c1ccccc1Cl)C(=O)c1ccccc1Cl`: in [3], the logP came to 2.75.

`COc1ccc2[nH]c3c(c2c1)CCNc1cc(Cl)ccc1-3` displayed a logP in series [12] of 4.24. Consider `O=C(CCN1CCCC1)CN1C(=O)C2CC=CCC2C1=O` (stereo not drawn), for which the logP in series [23] is 1.11. `COC(=O)C(C)(C)Oc1ccc(C(=O)c2ccc(Cl)cc2)cc1`: the logP in series [18] was 4.27. With `CCn1cc(C(=O)NC(C(=O)OC)C(C)C)c(=O)c2ccc(C)nc21` (stereo not drawn), in series [21], the logD worked out at 3.61.

In series [25], `Brc1cccc(N2CCN(Cc3cc4ccccn4n3)CC2)n1` registered a logD of 1.78. For the compound `CC(=O)CC(c1ccccc1)c1c(O)c2ccccc2oc1=O` (stereo not drawn), the logP in [26] was found to be 2.4. For `CNC12CCCCC1CC(C)c1ccccc12` (stereo not drawn), the logP in [5] worked out at 3.96. The compound `CCc1cccc(N(C)C(=N)Nc2cc(SC)ccc2Cl)c1` displayed a logP in [24] of 3. Consider `CCCCCCCCOC(=O)Cc1ccc(O)c(OC)c1`, for which the logP in series [15] was 4.04. `COc1c(C)c2c(c(O)c1C/C=C(\C)CCC(=O)O)C(=O)OC2`: in [22] (pH 2.0), the logD stood at 2.76. In [25], `Oc1ccccc1N1CCN(Cc2cnn3ccccc23)CC1` gave a logD of 2.15. Turning to `COc1ccc(CNC(=O)C(=O)c2c[nH]c3ccc([N+](=O)[O-])cc23)cc1`, the logD in [20] was found to be 2.17.

In [26], `CC1(C)Oc2ccc(C#N)cc2C(N2CCCC2=O)C1O` (stereo not drawn) registered a logP of 2.1.

Turning to `COC(C(=O)N(C)C)(c1ccccc1)c1ccccc1`, the logD in [2] was determined as 0.78. In series [27], `CC(=O)OC(CC#CCS(=O)(=O)c1ccc([N+](=O)[O-])cc1)Cn1ccnc1[N+](=O)[O-]` (stereo not drawn) returned a logD of 1.18. On to `CC1(C)CC(NC(=O)C(Cc2ccccc2)NC(=O)N(CCCl)N=O)CC(C)(C)N1O` (stereo not drawn), for which the logP in [28] is 2.3. `CC(C)C(NC(=O)N(CCCl)N=O)C(=O)NC1CC(C)(C)N(O)C(C)(C)C1` (stereo not drawn) yielded a logP in [28] of 2.09. In series [6], `O=C1CN=C(c2ccccc2F)c2cc(Cl)ccc2N1CC(F)(F)F` yielded a logP of 3.36. On to `CC(=O)OC(CC#CCS(=O)(=O)c1ccccc1)Cn1ccnc1[N+](=O)[O-]` (stereo not drawn), for which the logD in series [27] came to 1.35. Consider `CC(CC(=O)O)c1ccc(OCc2ccccc2)cc1` (stereo not drawn), for which the logD in series [10] is 3.58.
